Measurements reported in patent US20140128357A1, “METHODS OF PRODUCING AND USING BRASSINOSTEROIDS TO PROMOTE GROWTH, REPAIR AND MAINTENANCE OF SKELETAL MUSCLE AND SKIN” (Rutgers University, priority 2010, published 2014).

Legend:
[1] = tested on: NIH 3T3 murine fibroblast cell line; assay: Cytotoxicity, MTT assay in 3T3 fibroblasts; type: cell-based, mouse
Method: (§1) FIG. 9. Cell survival curves as measured by MTT assay for brassinosteroids 1-9 against the murine fibroblast cell line NIH-3T3. Cells were incubated with various concentrations of brassinosteroids (0.3-30 μM) for 24 h at 37° C. The mean absorbance of the control cells represented 100% cell proliferation, and the mean absorbance of treated cells was related to control values to determine sensitivity. Error bars represent standard error (n=6) from mean cell proliferation as determined by repeated experiments.
(§2) In various aspects, cell viability is measured and the effects of doses of compound and test reagents are tested in cell lines. In some aspects, cell viability was measured by the MTT (3-(4,5-Dimethylthiazol-2-yl)-2,5-diphenyltetrazolium bromide) assay in triplicate (Mosmann et al., J. Immunol. Methods 65:55-63, 1983) and quantified spectrophotometrically at 550 nm using a microplate reader (Molecular Devices, Sunnyvale, Calif.).
(§3) 3T3 fibroblasts were seeded in a 96-well flat bottom plate at a density of 1×10^4 cells/well. Cell viability was measured by an MTT (3-(4,5-Dimethylthiazol-2-yl)-2,5-diphenyltetrazolium bromide) assay in triplicate (0.3-30 μM of test substance for […]) essentially as described by Mosmann (J. Immunol. Methods 65, 55-63, 1983) and quantified spectrophotometrically at 550 nm using a microplate reader (Molecular Devices, Sunnyvale, Calif.). […] For cell proliferation studies, cells were treated in triplicate with 0.1-10 μM of test substance for 24 h and assayed using a BrdU (5-bromo-2′-deoxyuridine) kit from Amersham (Uppsala, Sweden).

[2] = tested on: 3T3 mouse fibroblasts; assay: Cell proliferation, BrdU assay; type: cell-based; settings: 24 h
Method: as §3

[3] = tested on: L6 rat myotubes; assay: Protein degradation, release of acid-soluble [3H]-phenylalanine; type: cell-based; settings: 10 μM, 4 h
Method: In some aspects, cell culture experiments were carried out. Rat L6 skeletal muscle cell line CRL-1458 was obtained from ATCC (Manassas, Va.). Myoblasts were routinely maintained in Dulbecco's modified Eagle's medium (DMEM) containing 10% FBS and 0.1% penicillin-streptomycin at 37° C. and 5% CO2. Cells were subcultured into 24-well plates for protein synthesis, degradation, and cell viability studies and into 6-well plates for Western blot analyses (Greiner Bio One, Monroe, N.C.). Once cells reached 90% confluence, differentiation was induced by lowering the serum concentration to 2%, and medium was changed every 2 days. […] NIH 3T3 murine embryonic fibroblast cell line (ATCC #CCL-92) was maintained in DMEM and 10% FBS at 37° C. in 5% CO2, and passaged every 3-4 days.
In various aspects, protein degradation is measured to determine the effect of brassinosteroid on a particular protein. All known methods for measuring protein degradation are included in the methods of the disclosure. The effect of brassinosteroids on protein degradation was investigated in fully differentiated myotubes as described by Fawcett et al. (Arch. Biochem. Biophys. 385:357-363, 2001) with slight modifications. Fully differentiated myotubes were incubated for 16 h to allow labeling of cellular proteins with 1.5 μCi/mL [^3H]-phenylalanine. […] The incubation was stopped by placing the cells on ice, and protein in the medium was precipitated with 5% trichloroacetic acid. Specific radioactivity of protein-free phenylalanine was quantified using liquid scintillation counter LS 6500 (Beckman Coulter, Fullerton, Calif.) and normalized to mg of total cell protein determined by BCA protein assay (Pierce Biotechnology, Rockford, Ill.).
The bioactivity of HB and its analogs (as shown in Table 3) were also evaluated by measuring decreases in protein degradation in the L6 rat skeletal muscle cells in vitro. Cells were labeled overnight with [^3H]-phenylalanine and subsequently treated for 4 h in triplicate with vehicle (0.1% ethanol) or test compound (10 μM), and protein degradation was assessed as release of acid-soluble [^3H]-phenylalanine into the media normalized by total protein (Table 3).

[4] = tested on: L6 rat myotubes; assay: Protein synthesis, [3H]-phenylalanine incorporation in myotubes; type: cell-based; settings: 10 μM, 4 h
Method: In some aspects, cell culture experiments were carried out. Rat L6 skeletal muscle cell line CRL-1458 was obtained from ATCC (Manassas, Va.). Myoblasts were routinely maintained in Dulbecco's modified Eagle's medium (DMEM) containing 10% FBS and 0.1% penicillin-streptomycin at 37° C. and 5% CO2. Cells were subcultured into 24-well plates for protein synthesis, degradation, and cell viability studies and into 6-well plates for Western blot analyses (Greiner Bio One, Monroe, N.C.). Once cells reached 90% confluence, differentiation was induced by lowering the serum concentration to 2%, and medium was changed every 2 days. After 7-9 days of culture the myoblasts had fused into multinucleated myotubes (Mandel et al., Nature 251:618-620, 1974). NIH 3T3 murine embryonic fibroblast cell line (ATCC #CCL-92) was maintained in DMEM and 10% FBS at 37° C. in 5% CO2, and passaged every 3-4 days.
In various aspects, protein synthesis is measured to determine the effect of brassinosteroid on a particular protein. All known methods for measuring protein synthesis are included in the methods of the disclosure. In brassinosteroid dose response studies, fully differentiated myotubes were washed with serum-free DMEM and treated in triplicate with vehicle (0.1% ethanol), increasing concentrations of HB, or 6.5 nM of insulin-like growth factor-1 (IGF-1) as a positive control. Compounds were added to serum-free medium containing 0.5 μCi/mL [^3H]-phenylalanine and incubated for 4 h. For the HB time course study, fully differentiated myotubes were treated with 3 μM HB for 1-24 h using the same culture conditions. The incubation was stopped by placing cells on ice, discarding the medium, and washing the cells extensively with ice-cold PBS to remove the non-incorporated radiolabel. Proteins were precipitated with 5% trichloroacetic acid and dissolved in 0.5N NaOH (Montgomery et al., Methods Cell. Sci. 24:123-129, 2002). Specific radioactivity of protein-bound phenylalanine was quantified using liquid scintillation counter LS 6500 (Beckman Coulter, Fullerton, Calif.) and normalized to mg of total protein determined by BCA protein assay (Pierce Biotechnology, Rockford, Ill.).
The bioactivity of HB and its analogs was evaluated by measuring increases in protein synthesis in the L6 rat skeletal muscle cells in vitro. Cells were incubated for 4 h with [^3H]-phenylalanine and treated in triplicate with vehicle (0.1% ethanol) or test compound (10 μM), and protein synthesis was measured as incorporation of [^3H]-phenylalanine into protein normalized by total protein (Table 3). Under these conditions, both HB and (22S,23S)-homocastasterone increased protein synthesis by 37.2±5.9% (p<0.001) and 41.0±2.7% (p<0.001), respectively. This protein synthesis increase compared favorably to the biological activity of IGF-1 at 6.5 nM (42.5±4.5%, p<0.001) that served as a positive control in this assay. Removal of the 2α-hydroxyl group and fluorination at C-3 in the A ring (compound IDs 3-4 in Table 3) led to about a 50% decrease in bioactivity (24.6±5.3%, p<0.01 and 22.5±2.7%, p<0.01, respectively) compared to the positive control. However, there was still an increase in protein synthesis. […] Modifications in the side chain (compound IDs 7-9 in Table 3) abolished the activity.

[5] = tested on: 3T3 Swiss fibroblast monolayers; assay: Scratch wound closure in vitro; type: cell-based, mouse; settings: for Scratch wound closure at 5 μM, % of control: 12 h (Table 6)
Method: 3T3 fibroblasts were seeded into 24-well dishes at a concentration of 3×10^5 cells/ml and cultured to nearly confluent cell monolayers. On the day of the experiment, a linear wound was generated in the monolayer with a sterile 100 μl plastic pipette tip and any cellular debris was removed by washing cells once with sterile PBS. Fresh DMEM medium containing vehicle (0.1% ethanol), positive control (0.5% FBS), or various concentrations of the fractions, sub-fractions or pure compounds was added to a set of 3 wells per dose and incubated for 12 h at 37° C. with 5% CO2. Cells were then visualized with 20 μl of 10% methylene blue in PBS for 5 min. Three representative images of the scratched areas from each well were photographed at 0 and 12 h to estimate the scratch wound closure. Images were analyzed using ImageJ program (NIH, Bethesda, Md.) and % wound closure was calculated relative to vehicle control and was reported as wound closure % over control (Table 4). 3T3 Swiss fibroblast were seeded into 24-well tissue culture at a concentration of 3×10^5 cells/ml and cultured to nearly confluent cell monolayers. Then, a linear wound was generated in the monolayer with a sterile 100 μl plastic pipette tip. Any cellular debris was removed by washing with PBS. DMEM medium with vehicle (0.1% ethanol), FBS (1%, positive control), or various concentrations of brassinosteroids were added to a set of 3 wells per dose and incubated for 12 h at 37° C. with 5% CO2. Cells were visualized in 10% methylene blue for 5 minutes. Three representative images from each well of the scratched areas under each condition were photographed to estimate the relative migration of cells at 0 and 12 h post-treatment. Data were analyzed using ImageJ software available online from the National Institutes of Health (rsbweb.nih.gov/ij/) by calculating the percentage of scratch closure at each dose point relative to control.

[6] = tested on: 3T3 Swiss fibroblast monolayers; settings: PDGF 2 nM reference treatment, reported previously (Schmidt et al.); cited from earlier work
[7] = tested on: rats; settings: orally or subcutaneously; cited from earlier work
[8] = tested on: mice; settings: orally or subcutaneously; cited from earlier work
[9] = Cytotoxicity, MTT assay in 3T3 fibroblasts; type: cell-based, mouse; settings: mouse
Method: as §1, §2, §3

CC[C@@H](C(C)C)[C@@H](O)[C@H](O)[C@@H](C)[C@H]1CC[C@H]2[C@@H]3COC(=O)[C@H]4C[C@H](O)[C@H](O)C[C@]4(C)[C@H]3CC[C@]12C [Compound 7, (22R,23R,24S)-2α,3α-22,23-tetrahydroxy-24-ethyl-B-homo-7-oxa-5α-cholestan-6-one]
IC50 [1]: > 30 µM
Cell proliferation at 5 μM, % of control [2]: 29.1 ± 3.4 %
Protein degradation (% decrease over control) [3]: −14.8 ± 3.8%
Protein synthesis (% increase over control) [4]: 13.1 ± 2.4%
Scratch wound closure at 5 μM, % of control [5]: 16.5 ± 0.5%

CC(C)[C@H](C)[C@H](O)[C@@H](O)[C@@H](C)[C@H]1CC[C@H]2[C@@H]3COC(=O)[C@H]4C[C@@H](O)[C@H](O)C[C@]4(C)[C@H]3CC[C@]12C [Compound 8, (22S,23S,24R)-2α,3α-22,23-tetrahydroxy-24-methyl-B-homo-7-oxa-5α-cholestan-6-one]
IC50 [1]: > 30 µM
Cell proliferation at 5 μM, % of control [2]: 31.9 ± 5.3 %
Protein degradation (% decrease over control) [3]: −5.4 ± 7.9%
Protein synthesis (% increase over control) [4]: 4.1 ± 1.7%
Scratch wound closure at 5 μM, % of control [5]: 13.2 ± 1.5%

PDGF
Scratch wound closure, % of control [6]: 64.8 ± 1.7 %

CC(C)[C@@H](C)[C@@H](O)[C@H](O)[C@@H](C)[C@H]1CC[C@H]2[C@@H]3COC(=O)[C@H]4C[C@H](O)[C@H](O)C[C@]4(C)[C@H]3CC[C@]12C [24-Epibrassinolide]
median lethal dose (LD50) [7]: higher than 2000 mg/kg
median lethal dose (LD50) [8]: higher than 1000 mg/kg

CC(C)C(C)C(O)C(O)C(C)C1CCC2C3COC(=O)C4CC(O)C(O)CC4(C)C3CCC12C [Compound 9, (22R,23R,24R)-2α,3α-22,23-tetrahydroxy-24-methyl-B-homo-7-oxa-5α-cholestan-6-one]
IC50 [1]: > 30 µM
Cell proliferation at 5 μM, % of control [2]: 31.0 ± 2.6 %
Protein degradation (% decrease over control) [3]: −6.7 ± 7.9%
Protein synthesis (% increase over control) [4]: 11.7 ± 3.9%
Scratch wound closure at 5 μM, % of control [5]: 8.1 ± 1.6%

CC[C@@H](C(C)C)[C@H](O)[C@@H](O)[C@@H](C)[C@H]1CC[C@H]2[C@@H]3CC(=O)[C@H]4C[C@H](F)CC[C@]4(C)[C@H]3CC[C@]12C [Compound 4, (22S,23S,24S)-3α-fluoro-22,23-dihydroxy-24-ethyl-5α-cholestan-6-one]
IC50 [9]: ~30 µM
cytotoxicity compared to the original brassinosteroids [1]: increased cytotoxicity
Protein degradation (% decrease over control) [3]: −16.3 ± 4.2%
Protein synthesis (% increase over control) [4]: 22.5±2.7%
Scratch wound closure at 5 μM, % of control [5]: 27.7 ± 4.0 %
Wound Closure (% over control) ([5]; 10 μM, 12 h (Table 4)): 27.7 ± 4.0 %
fibroblast migration activity in words ([5]; 0.1-10 μM, 12 h): high activity, similar to HB
